Marks after values point to notes of the source that are not given here.
Assays:
Type in all cases: in vivo, Female BALB/c mice
[1] = tested on: BLM-Induced Systemic Sclerosis Mouse Model; test: Comparison with other antiplatelet drugs: skin thickening in BLM-induced systemic sclerosis mouse model; conditions: 0.10 mmol/kg once a day for 28 days; for Skin thickness: oral (gavage) (Sodium Ozagrel: intravenous injection), mean ± SE, n = 8, blank 0.22±0.05, model 0.87±0.15
Description: (§1) Female BALB/c mice, weighing 18-22 g, were purchased from Beijing Weitonglihua Experimental Animal Technology Co., Ltd. and housed in an SPF environment for 1 week (with free access to drinking water during the feeding period). They were then randomly divided into 9 groups, with 10 mice in each group, namely, blank group, model group, sodium ozagrel group, dipyridamole group, clopidogrel group, cilostazol group, ticagrelor group, aspirin group, and HY-2 group. The back of mice of each group was shaved in an area of 1 cm*1 cm. Except for the blank group which was subcutaneously injected with normal saline, all other groups were subcutaneously injected with BLM 100 µL (0.5 mg/mL) for 28 consecutive days (the injection area was injected at the four corners of the shaved area for the first 4 times, and the center of the shaved area for the 5th time, and this cycle was repeated. The skin changes at the subcutaneous injection site and the weight changes of the mice were observed every week). Each treatment group was respectively given sodium ozagrel, dipyridamole, clopidogrel, cilostazol, ticagrelor, aspirin, and HY-2 30 minutes after the injection of BLM, once a day for 28 consecutive days (the dosage and administration method are shown in Table 1). Table 1 Dosage and administration method
After the last administration, the animals were sacrificed, and the back skin tissue was taken, fixed with 4% paraformaldehyde, dehydrated, paraffin-embedded and sliced. The tissue sections were stained with HE, and the pathological morphological changes of the skin tissue were examined with a microscope and the skin thickening was measured.
The experimental data were processed using GraphPad Prism 7, and the experimental groups were compared using the student t test.

[2] = tested on: transforming growth factor β1 (TGF-β1); test: Serum TGF-β1 level (ELISA) in BLM-induced systemic sclerosis mouse model; conditions: 0.10 mmol/kg once a day for 28 days; for TGF-β1: serum, oral (gavage) (Sodium Ozagrel: intravenous injection), mean ± SE, n = 8, blank 379.76±120.63, model 913.10±64.73
Description: as §1
(§2) Mouse TXB2 ELISA kit was purchased from Shanghai Jianglai Biological, batch number: 20220715, antibody types: purified mouse TXB2 capture antibody and horseradish peroxidase (HRP)-labeled detection antibody; mouse TGF-β1 ELISA kit was purchased from Shanghai Jianglai Biological, batch number: 20220806, antibody types: purified mouse TGF-β1 capture antibody and horseradish peroxidase (HRP)-labeled detection antibody.
(§3) The kit uses a double-antibody one-step sandwich enzyme-linked immunosorbent assay (ELISA). Serum specimens, standards, and horseradish peroxidase (HRP)-labeled detection antibodies are added sequentially to the coated microwells pre-coated with mouse analyte capture antibodies, followed by incubation and thorough washing. The substrate TMB (3,3',5,5'-tetramethylbenzidine) is used for color development. TMB is converted to be blue under the catalysis of peroxidase (HRP) and then converted to be finally yellow under the action of acid. The depth of color is positively correlated with the content of the analyte in the serum sample. The absorbance (OD value) was measured at a wavelength of 450 nm using a microplate reader to calculate the sample concentration.
(§4) After the last administration, the animals were sacrificed and serum samples were collected. Standard wells were set on the enzyme-labeled coated plate, standard solutions of different concentrations were prepared according to the instructions, and 50uL of standard solutions of different concentrations were added to each standard well. Blank wells and test sample wells were set on the enzyme-labeled coated plate, 40uL of sample diluent was first added to the test sample well, and 20uL of test serum sample was then added. 100uL of enzyme-labeled reagent was added to each well, except the blank well. The plate was sealed with a sealing film and incubated at 37°C for 60 minutes. The sealing film was removed, and after discarding the liquid and spinning dry, each well was filled with washing solution, and stood for 30 seconds, then discarding the washing solution, repeating 5 times and spinning dry. 50uL of color developer A (containing H2O2) was first added into each well, and then 50uL of color developer B (containing substrate TMB) was added, gently shaking to mix, and color developing at 37°C in the dark for 15 minutes. 50uL of stop solution was added to each well to stop the reaction (the blue color immediately turns to yellow). The microplate reader was adjusted to zero with the blank well, and the absorbance OD value of each well was measured in sequence at a wavelength of 450nm. The measurement should be carried out within 15 minutes after adding the stop solution.

[3] = tested on: thromboxane B2 (TXB2); test: Serum TXB2 level (ELISA) in BLM-induced systemic sclerosis mouse model; conditions: 0.10 mmol/kg once a day for 28 days; for TXB2: serum, oral (gavage) (Sodium Ozagrel: intravenous injection), mean ± SE, n = 8, blank 74.19±14.76, model 261.91±10.96
Description: as §1, §2, §3, §4

[4] = tested on: BLM-Induced Systemic Sclerosis Mouse Model; test: Skin thickening (HE staining) in BLM-induced systemic sclerosis mouse model, dose groups; conditions: compared with the model group
Experimental: Female BALB/c mice, weighing 18-22 g, were purchased from Beijing Weitong Lihua Experimental Animal Technology Co., Ltd. and housed in an SPF environment for 1 week (with free access to drinking water during the feeding period). They were then randomly divided into 5 groups, 8 mice in each group, namely, blank group, model group, 15 mg/kg, 30 mg/kg, and 60 mg/kg dosage groups of sodium 4-(2-(1H-imidazol-1-yl)ethoxy)-3-methoxybenzoate (HY-2). The back of each group of mice was shaved in an area of 1 cm*1 cm. Except for the blank group which was subcutaneously injected with normal saline, all other groups were injected with BLM 100 µL (0.5 mg/mL) for 28 consecutive days (the injection area was the four corners of the shaved area for the first 4 injections, and the center of the shaved area for the 5th injection, and this cycle was repeated. The skin changes at the subcutaneous injection site and the weight changes of the mice were observed every week). After the injection of BLM, the treatment group was orally (gavaged) given the corresponding dose of sodium 4-(2-(1H-imidazole-1-yl)ethoxy)-3-methoxybenzoate, once a day, for 28 consecutive days.
After the last administration, the animals were sacrificed, and appropriate skin tissues were taken for HE staining and measurement of skin thickening.

[5] = tested on: BLM-Induced Systemic Sclerosis Mouse Model; test: Lung histopathology (HE staining) in BLM-induced systemic sclerosis mouse model; conditions: each dose group (15, 30, 60 mg/kg) oral (gavage) once a day for 28 days, compared with the model group
Experimental: (§5) Female BALB/c mice, weighing 18-22 g, were purchased from Beijing Weitonglihua Experimental Animal Technology Co., Ltd. and housed in an SPF environment for 1 week (with free access to water during the feeding period). They were then randomly divided into 5 groups, with 8 mice in each group, namely, blank group, model group, HY-2 15 mg/kg, 30 mg/kg, and 60 mg/kg dose groups. The back of each group of mice was shaved in an area of 1 cm*1 cm. Except for the blank group which was subcutaneously injected with normal saline, all other groups were injected with BLM 100 µL (0.5 mg/mL) for 28 consecutive days (the injection area was the four corners of the shaved area for the first 4 injections, and the center of the shaved area for the 5th injection, and this cycle was repeated. The skin changes at the subcutaneous injection site and the weight changes of the mice were observed every week). After the injection of BLM, each dose treatment group was orally (gavage) given the corresponding dose of HY-2 once a day for 28 consecutive days.
After the last administration, the animals were sacrificed, and appropriate lung tissues were taken for HE staining and slide preparation to examine the lung tissue structure and inflammatory cell infiltration.

[6] = tested on: BLM-Induced Systemic Sclerosis Mouse Model; test: Collagen deposition (Masson staining) in skin and lung tissues of BLM-induced systemic sclerosis mouse model; conditions: each dose group (15, 30, 60 mg/kg) oral (gavage) once a day for 28 days, compared with the model group, P<0.01
Experimental: as §5, with “administered” for “given”
After the last administration, the animals were sacrificed, and appropriate skin and lung tissues were taken for Masson staining and slide preparation to examine the collagen deposition in the skin and lung tissues. The percentage of collagen deposition was quantified using Image-Pro® Plus software.

CC(=O)Oc1ccccc1C(=O)O [Aspirin, aspirin]
Skin thickness [1]: 0.80±0.09^aa mm
TGF-β1 [2]: 827.68 ± 77.88 pg/mL
TXB2 [3]: 239.57 ± 13.60 pg/mL

O=C1CCc2cc(OCCCCc3nnnn3C3CCCCC3)ccc2N1 [Cilostazol, cilostazol]
Skin thickness [1]: 0.74±0.11^a mm
TGF-β1 [2]: 838.27 ± 65.93 pg/mL
TXB2 [3]: 259.32±7.13^a pg/mL

COC(=O)[C@H](c1ccccc1Cl)N1CCc2sccc2C1 [Clopidogrel, clopidogrel]
Skin thickness [1]: 0.81±0.10^aa mm
TGF-β1 [2]: 822.62 ± 76.60 pg/mL
TXB2 [3]: 208.46 ± 42.87 pg/mL

OCCN(CCO)c1nc(N2CCCCC2)c2nc(N(CCO)CCO)nc(N3CCCCC3)c2n1 [Dipyridamole, dipyridamole]
Skin thickness [1]: 0.74 ± 0.12^a mm
TGF-β1 [2]: 867.56 ± 113.73 pg/mL
TXB2 [3]: 248.84 ± 38.88 pg/mL

COc1cc(C(=O)[O-])ccc1OCCn1ccnc1.[Na+] [HY-2, sodium 4-(2-(1H-imidazol-1-yl)ethoxy)-3-methoxybenzoate]
skin thickening ([4]; 30 mg/kg oral (gavage) once a day for 28 days, P<0.05): significantly inhibited
skin thickening ([4]; 60 mg/kg oral (gavage) once a day for 28 days, P<0.01): significantly inhibited
lung tissue structure and inflammatory cell infiltration [5]: regular and infiltrated by less inflammatory cells
Skin thickness [1]: 0.59±0.06 mm
skin thickness compared with the model group (in words) ([1]; P<0.01): significantly decreased
effect on TGF-β1 in serum (in words) ([2]; vs model group): significantly reduce
TGF-β1 [2]: 783.04 ± 53.77 pg/mL
effect on TXB2 in serum (in words) ([3]; vs model group): significantly reduce
TXB2 [3]: 215.00 ± 38.92 pg/mL
collagen deposition in the lung tissue [6]: significantly reduced
collagen deposition in the skin [6]: significantly reduced

O=C(O)/C=C/c1ccc(Cn2ccnc2)cc1 [Sodium Ozagrel, sodium ozagrel]
Skin thickness [1]: 0.82±0.16^aa mm
TGF-β1 [2]: 884.74±33.45^aa pg/mL
TXB2 [3]: 196.54 ± 45.30 pg/mL

CCCSc1nc(N[C@@H]2C[C@H]2c2ccc(F)c(F)c2)c2nnn([C@@H]3C[C@H](OCCO)[C@@H](O)[C@H]3O)c2n1 [Ticagrelor, ticagrelor]
Skin thickness [1]: 0.74±0.07^aa mm
TGF-β1 [2]: 847.62±43.73^a pg/mL
TXB2 [3]: 197.76 ± 42.08 pg/mL
